Experimental data published in PubChem BioAssay (NCI).
Where “and” joins values, the source holds several entries; their conditions need not be identical. Identical values can stand only once.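 1) Cells in 96-well plates. 2) Compound, 48 h, 5 concentrations. 3) Linear interpolation between surrounding doses. 4) Unreached endpoint = highest concentration. GI50 marks 50% less growth. TGI marks complete inhibition of growth.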

What was measured:
Assay in all cases: NCI-60 cell line screen, 48 h
SF-268 CNS = system: SF-268 CNS
OVCAR-3 ovarian = system: OVCAR-3 ovarian
SR leukemia = system: SR leukemia
HS 578T breast = system: HS 578T breast
TK-10 renal = system: TK-10 renal
NCI-H460 lung = system: NCI-H460 lung
NCI-H522 lung = system: NCI-H522 lung
MCF7 breast = system: MCF7 breast
HOP-92 NSCLC = system: HOP-92 NSCLC
BT-549 breast = system: BT-549 breast

## CCOC(=O)Cc1csc(NC(=O)C(OC(=O)c2ccc(Cl)cc2)c2ccccc2)n1 (stereo not drawn)
SF-268 CNS
  GI50: 28.7 µM
  TGI: > 100 µM
OVCAR-3 ovarian
  GI50: 17.8 µM
  TGI: 41.9 µM
SR leukemia
  GI50: 13.4 µM
  TGI: 58.7 µM
HS 578T breast
  GI50: 54.8 µM
  TGI: > 100 µM
TK-10 renal
  GI50: > 100 µM
  TGI: > 100 µM
NCI-H460 lung
  GI50: 36.1 µM
  TGI: > 100 µM
NCI-H522 lung
  GI50: 46 µM
  TGI: > 100 µM
MCF7 breast
  GI50: 34 µM
  TGI: > 100 µM
HOP-92 NSCLC
  GI50: 27.2 µM
  TGI: > 100 µM
BT-549 breast
  GI50: 25.9 µM
  TGI: 56.9 µM

## CC1(C)C(=O)/C=C\C(=O)C(C)(C)C2=CC=C(O2)C(C)(C)C(=O)C(Br)C(Br)C(=O)C(C)(C)C2=CC=C1O2 (stereo not drawn)
SF-268 CNS
  TGI: > 100 µM
OVCAR-3 ovarian
  TGI: 68.9 µM
SR leukemia
  TGI: 5.62 µM
HS 578T breast
  TGI: > 100 µM
TK-10 renal
  TGI: > 100 µM
NCI-H460 lung
  TGI: > 100 µM
NCI-H522 lung
  TGI: 59.6 µM
MCF7 breast
  TGI: > 100 µM
HOP-92 NSCLC
  TGI: > 100 µM
BT-549 breast
  TGI: 76.5 µM

## COc1cc2c3c(n(CCCN=[N+]=[N-])c(=O)c2cc1OC)-c1ccc([N+](=O)[O-])cc1C3=O
SF-268 CNS
  GI50: 33.4 µM
  TGI: > 100 µM
OVCAR-3 ovarian
  GI50: > 100 µM
  TGI: > 100 µM
SR leukemia
  GI50: 4.38 µM
  TGI: 22.9 µM
HS 578T breast
  GI50: 48 µM
  TGI: > 100 µM
TK-10 renal
  GI50: > 100 µM
  TGI: > 100 µM
NCI-H460 lung
  GI50: 49.5 µM
  TGI: > 100 µM
NCI-H522 lung
  GI50: 16.8 µM
  TGI: > 100 µM
MCF7 breast
  GI50: 27.9 µM
  TGI: > 100 µM
HOP-92 NSCLC
  GI50: 29.8 µM
  TGI: > 100 µM
BT-549 breast
  GI50: 14.4 µM
  TGI: 98.8 µM

## O=Cc1ccc(-c2ccc(-c3nc4ccccc4s3)cc2)o1
SF-268 CNS
  GI50: 72.6 µM
  TGI: > 100 µM
OVCAR-3 ovarian
  GI50: 16 µM
  TGI: 74.1 µM
HS 578T breast
  GI50: > 100 µM
  TGI: > 100 µM
TK-10 renal
  GI50: 22.4 µM
  TGI: 54 µM
NCI-H460 lung
  GI50: 76.4 µM
  TGI: > 100 µM
NCI-H522 lung
  GI50: > 100 µM
  TGI: > 100 µM
MCF7 breast
  GI50: 1.53 µM
  TGI: 56.6 µM
HOP-92 NSCLC
  GI50: 94.3 µM
  TGI: > 100 µM
BT-549 breast
  GI50: > 100 µM
  TGI: > 100 µM

## COc1ccc2c(n1)Sc1nc3ccccc3nc1N2
SF-268 CNS
  TGI: > 100 µM
OVCAR-3 ovarian
  TGI: > 100 µM
HS 578T breast
  TGI: > 100 µM
TK-10 renal
  TGI: 80.1 µM
NCI-H460 lung
  TGI: > 100 µM
NCI-H522 lung
  TGI: > 100 µM
MCF7 breast
  TGI: > 100 µM
HOP-92 NSCLC
  TGI: > 100 µM
BT-549 breast
  TGI: > 100 µM

## CCOc1ccccc1/C=N\N=C(N/N=C/c1ccccc1OCC)N/N=C/c1ccccc1OCC
SF-268 CNS
  GI50: 1.62 µM
  TGI: > 100 µM
OVCAR-3 ovarian
  GI50: 0.532 µM
  TGI: 6.79 µM
SR leukemia
  GI50: 3.23 µM
  TGI: > 100 µM
HS 578T breast
  GI50: 2.22 µM
  TGI: 8.39 µM
TK-10 renal
  GI50: 2.81 µM
  TGI: > 100 µM
NCI-H460 lung
  GI50: 1.35 µM
  TGI: > 100 µM
MCF7 breast
  GI50: 0.715 µM
  TGI: > 100 µM
HOP-92 NSCLC
  GI50: 1.24 µM
  TGI: 5.63 µM
BT-549 breast
  GI50: 2.67 µM
  TGI: > 100 µM

## COc1ccc(-c2cnc(-c3ccc(OC)cc3)n2-c2cc(OC)c(OC)c(OC)c2)cc1
SF-268 CNS
  GI50: 30.6 µM
  TGI: > 100 µM
OVCAR-3 ovarian
  GI50: 24.7 µM
  TGI: 65 µM
HS 578T breast
  GI50: 22.9 µM
  TGI: 64.2 µM
TK-10 renal
  GI50: 20.5 µM
  TGI: 39.2 µM
NCI-H460 lung
  GI50: 30.7 µM
  TGI: > 100 µM
NCI-H522 lung
  GI50: 29.5 µM
  TGI: > 100 µM
MCF7 breast
  GI50: 38.5 µM
  TGI: > 100 µM
HOP-92 NSCLC
  GI50: 19.7 µM
  TGI: 52.1 µM
BT-549 breast
  GI50: 28.6 µM
  TGI: 86.1 µM

## COC(=O)[C@H](Cc1cn(C)cn1)NC(=O)[C@H](CC(C)C)NC(=O)Nc1cc(C(F)(F)F)cc(C(F)(F)F)c1
SF-268 CNS
  GI50: 3.16 µM
  TGI: > 10 µM
OVCAR-3 ovarian
  GI50: 2.23 µM
  TGI: 4.82 µM
SR leukemia
  GI50: 2.59 µM
  TGI: 8.41 µM
HS 578T breast
  GI50: > 10 µM
  TGI: > 10 µM
TK-10 renal
  GI50: > 10 µM
  TGI: > 10 µM
NCI-H460 lung
  GI50: > 10 µM
  TGI: > 10 µM
MCF7 breast
  GI50: 2.52 µM
  TGI: 7.76 µM
HOP-92 NSCLC
  GI50: > 10 µM
  TGI: > 10 µM
BT-549 breast
  GI50: > 10 µM
  TGI: > 10 µM

## CCCCN(CCCC)P(=O)(Oc1ccccc1)Oc1ccccc1
SF-268 CNS
  GI50: 8.86 µM
  TGI: 21.9 µM
OVCAR-3 ovarian
  GI50: 6.44 µM
  TGI: 18.7 µM
SR leukemia
  GI50: 7.34 µM
  TGI: 68.5 µM
HS 578T breast
  GI50: 6.6 µM
  TGI: 24.8 µM
TK-10 renal
  GI50: 15.8 µM
  TGI: 33.1 µM
NCI-H460 lung
  GI50: 5.24 µM
  TGI: 18.9 µM
NCI-H522 lung
  GI50: 3.96 µM
  TGI: 18.2 µM
MCF7 breast
  GI50: 4.83 µM
  TGI: 18.6 µM
BT-549 breast
  GI50: 14.9 µM
  TGI: 28.3 µM

## CC(=O)OCC1OC(SC2=N/C(=C\c3ccc(Br)s3)C(=O)N2c2ccccc2)C(OC(C)=O)C(OC(C)=O)C1OC(C)=O (stereo not drawn)
SF-268 CNS
  TGI: > 100 µM
OVCAR-3 ovarian
  GI50: 91.1 µM and 20.7 µM
  TGI: > 100 µM and 85.2 µM
SR leukemia
  GI50: 35.6 µM and 9.68 µM
  TGI: > 100 µM
HS 578T breast
  TGI: 78.4 µM and > 100 µM
TK-10 renal
  TGI: > 100 µM
NCI-H460 lung
  TGI: > 100 µM
NCI-H522 lung
  TGI: > 100 µM and 94.3 µM
MCF7 breast
  TGI: > 100 µM
BT-549 breast
  TGI: > 100 µM

## COc1ccc(C(=O)/C=C/c2cc(-c3ccc(OC)c(OC)c3)n[nH]2)cc1OC
SF-268 CNS
  GI50: 2.09 µM
  TGI: 9.82 µM
OVCAR-3 ovarian
  GI50: 1.96 µM
  TGI: 4.72 µM
HS 578T breast
  GI50: 3.76 µM
  TGI: > 100 µM
TK-10 renal
  GI50: 4.96 µM
  TGI: 47.7 µM
NCI-H460 lung
  GI50: 0.606 µM
  TGI: 4.36 µM
NCI-H522 lung
  GI50: 1.69 µM
  TGI: 3.9 µM
MCF7 breast
  GI50: 0.937 µM
  TGI: 8.02 µM
HOP-92 NSCLC
  GI50: 1.97 µM
  TGI: 8.12 µM
BT-549 breast
  GI50: 1.44 µM
  TGI: 2.92 µM
